The text below walks through data of US12528814B2, “Bifunctional degraders of interleukin-1 receptor-associated kinases and therapeutic use thereof” (NURIX THERAPEUTICS, INC., priority 2020, dated 2026).

Assay [1] addresses T1, IRAK4 (Homo sapiens (Human), UniProt Q9NWZ3). The assay is described as follows: IRAK4 Biochemical HTRF Kinase Assay. As to conditions: Table 5; multiple runs; read-out: IRAK4 HTRF biochemical: IC50. An outline of the steps: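 IC50 values derive from non-linear regression of sixteen concentrations in duplicate. Kinase reaction ran 90 min at ambient temperature after adding 5 μM STK-S1 substrate, 10 mM ATP and 10 mM MgCl2 (reaction-solution levels, pre-dilution to 10 μl); phospho-peptide detected by HTRF after 60 min.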
On the technique in general: In TR-FRET formats the signal depends on donor and acceptor labels being close together.
Target sequence in this assay (Q9NWZ3 whole entry, species assumed): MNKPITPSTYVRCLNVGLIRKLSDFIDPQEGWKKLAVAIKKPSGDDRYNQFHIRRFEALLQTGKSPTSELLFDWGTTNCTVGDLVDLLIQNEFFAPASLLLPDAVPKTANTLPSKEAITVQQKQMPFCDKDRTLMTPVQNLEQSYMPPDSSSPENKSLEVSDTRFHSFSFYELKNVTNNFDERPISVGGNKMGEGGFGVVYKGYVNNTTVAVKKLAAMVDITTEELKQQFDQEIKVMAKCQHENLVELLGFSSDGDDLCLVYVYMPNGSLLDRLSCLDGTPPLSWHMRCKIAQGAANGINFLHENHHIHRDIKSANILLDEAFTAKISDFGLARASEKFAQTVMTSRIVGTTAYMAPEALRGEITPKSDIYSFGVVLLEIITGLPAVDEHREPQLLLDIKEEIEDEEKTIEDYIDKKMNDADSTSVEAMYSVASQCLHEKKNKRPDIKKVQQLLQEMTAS

In assay [2] the target is T1, IRAK4. The assay is described as follows: IRAK4 Degradation HiBiT Assay. Conditions: multiple runs, HiBiT-tagged Jurkat cells, 4 hrs; for Dmax: Jurkat, read-out: Cellular IRAK4 HiBiT: Dmax, Table 5; for DC50: read-out: Cellular IRAK4 HiBiT: DC50, Table 5.
Target sequence in this assay (Q9NWZ3 whole entry): as the sequence (Q9NWZ3 whole entry, species assumed) above

The structures appear in SMILES notation.

As a reminder, the IC50 is the concentration that gives 50% inhibition. What is called Dmax is the greatest extent of degradation seen. As a reminder, the DC50 is the concentration giving 50% degradation. Consider `CNc1cc(-c2ccc3cc(C#N)cnn23)ncc1-c1nnc([C@H]2CC[C@H](NC(=O)CCC(=O)N[C@H](C(=O)N3C[C@H](O)C[C@H]3C(=O)N[C@@H](C)c3ccc(Br)cc3)C(C)(C)C)CC2)s1` [Example 172, N1—((S)-1-((2S,4R)-2-(((S)-1-(4-bromophenyl)ethyl)carbamoyl)-4-hydroxypyrrolidin-1-yl)-3,3-dimethyl-1-oxobutan-2-yl)-N4-((1r,4S)-4-(5-(6-(3-cyanopyrrolo[1,2-b]pyridazin-7-yl)-4-(methylamino)pyridin-3-yl)-1,3,4-thiadiazol-2-yl)cyclohexyl)succinamide], for which the half-maximal inhibitory concentration (IC50) on IRAK4 [1] came out at 1.5 nM. At IRAK4 [2], the Dmax turned out to be 28% and the 50% degradation concentration (DC50) was determined as 2520 nM.

`CNc1cc(-c2ccc3cc(C#N)cnn23)ncc1-c1nnc([C@H]2CC[C@H](NC(=O)CCC(=O)N[C@H](C(=O)N3C[C@H](O)C[C@H]3C(=O)N[C@@H](C)c3ccccc3)C(C)(C)C)CC2)s1` [Example 173, N1-((1r,4S)-4-(5-(6-(3-cyanopyrrolo[1,2-b]pyridazin-7-yl)-4-(methylamino)pyridin-3-yl)-1,3,4-thiadiazol-2-yl)cyclohexyl)-N4—((S)-1-((2S,4R)-4-hydroxy-2-(((S)-1-phenylethyl)carbamoyl)pyrrolidin-1-yl)-3,3-dimethyl-1-oxobutan-2-yl)succinamide]: the IC50 on IRAK4 [1] worked out at 0.4 nM. Further, on IRAK4 [2], the Dmax stood at 16% and the DC50 stood at 612 nM.

`CNc1cc(-c2ccc3cc(C#N)cnn23)ncc1-c1nnc([C@H]2CC[C@H](N(C)C(=O)CCC(=O)N[C@H](C(=O)N3C[C@H](O)C[C@H]3C(=O)N[C@@H](C)c3ccccc3)C(C)(C)C)CC2)s1` [Example 174, N1-((1r,4S)-4-(5-(6-(3-cyanopyrrolo[1,2-b]pyridazin-7-yl)-4-(methylamino)pyridin-3-yl)-1,3,4-thiadiazol-2-yl)cyclohexyl)-N4—((S)-1-((2S,4R)-4-hydroxy-2-(((S)-1-phenylethyl)carbamoyl)pyrrolidin-1-yl)-3,3-dimethyl-1-oxobutan-2-yl)-N1-methylsuccinamide]: on IRAK4 [1], the IC50 turned out to be 0.6 nM. Moreover, on IRAK4 [2], the Dmax amounted to 34% and the DC50 was found to be 1340 nM.

For `CNc1cc(-c2ccc3cc(C#N)cnn23)ncc1-c1nnc(N2CCN(C(=O)C3CC4(CCN(c5ccc6c(c5)C(=O)N(C5CCC(=O)NC5=O)C6=O)C4)C3)CC2)s1` (stereo not drawn) [Example 175, 7-(5-(5-(4-(6-(2-(2,6-dioxopiperidin-3-yl)-1,3-dioxoisoindolin-5-yl)-6-azaspiro[3.4]octane-2-carbonyl)piperazin-1-yl)-1,3,4-thiadiazol-2-yl)-4-(methylamino)pyridin-2-yl)pyrrolo[1,2-b]pyridazine-3-carbonitrile], the IC50 at IRAK4 [1] came out at 0.5 nM. On IRAK4 [2], the Dmax came out at 91% and the DC50 amounted to 19.1 nM.

For the compound `CNc1cc(-c2ccc3cc(C#N)cnn23)ncc1-c1nnc(N2CC3(CCN(C(=O)C4CCN(c5ccc6c(c5)C(=O)N(C5CCC(=O)NC5=O)C6=O)CC4)CC3)C2)s1` (stereo not drawn) [Example 176, 7-(5-(5-(7-(1-(2-(2,6-dioxopiperidin-3-yl)-1,3-dioxoisoindolin-5-yl)piperidine-4-carbonyl)-2,7-diazaspiro[3.5]nonan-2-yl)-1,3,4-thiadiazol-2-yl)-4-(methylamino)pyridin-2-yl)pyrrolo[1,2-b]pyridazine-3-carbonitrile], the 50% inhibitory concentration (IC50) at IRAK4 [1] was 0.5 nM. At IRAK4 [2], the Dmax was found to be 105% and the half-maximal degradation concentration (DC50) came out at 31.5 nM.

In the case of `CNc1cc(-c2ccc3cc(C#N)cnn23)ncc1-c1nnc(N2CC3(CCN(C(=O)CN4CCN(c5ccc6c(c5)C(=O)N(C5CCC(=O)NC5=O)C6=O)CC4)CC3)C2)s1` (stereo not drawn) [Example 177, 7-(5-(5-(7-(2-(4-(2-(2,6-dioxopiperidin-3-yl)-1,3-dioxoisoindolin-5-yl)piperazin-1-yl)acetyl)-2,7-diazaspiro[3.5]nonan-2-yl)-1,3,4-thiadiazol-2-yl)-4-(methylamino)pyridin-2-yl)pyrrolo[1,2-b]pyridazine-3-carbonitrile], at IRAK4 [1], the IC50 was found to be 0.5 nM. In addition, on IRAK4 [2], the Dmax came out at 105% and the 50% degradation concentration (DC50) is 14.8 nM.

`CNc1cc(-c2ccc3cc(C#N)cnn23)ncc1-c1nnc(N2CC3(CCN(C(=O)C[C@H](NC(=O)[C@@H]4C[C@@H](O)CN4C(=O)[C@@H](NC(=O)C4(F)CC4)C(C)(C)C)c4ccc(-c5scnc5C)cc4)CC3)C2)s1` [Example 178]: the half-maximal inhibitory concentration (IC50) on IRAK4 [1] turned out to be 0.7 nM. Also, at IRAK4 [2], the Dmax is 113% and the DC50 stood at 42.8 nM.

For `CNc1cc(-c2ccc3cc(C#N)cnn23)ncc1-c1nnc(N2CC3(CCN(C(=O)COc4cc(-c5scnc5C)ccc4CNC(=O)[C@@H]4C[C@@H](O)CN4C(=O)[C@@H](NC(=O)C4(F)CC4)C(C)(C)C)CC3)C2)s1` [Example 179, (2S,4R)—N-(2-(2-(2-(5-(6-(3-cyanopyrrolo[1,2-b]pyridazin-7-yl)-4-(methylamino)pyridin-3-yl)-1,3,4-thiadiazol-2-yl)-2,7-diazaspiro[3.5]nonan-7-yl)-2-oxoethoxy)-4-(4-methylthiazol-5-yl)benzyl)-1-((S)-2-(1-fluorocyclopropane-1-carboxamido)-3,3-dimethylbutanoyl)-4-hydroxypyrrolidine-2-carboxamide], on IRAK4 [1], the IC50 came to 0.7 nM. In addition, on IRAK4 [2], the Dmax is 85% and the half-maximal degradation concentration (DC50) was 57 nM.

Turning to `CNc1cc(-c2ccc3cc(C#N)cnn23)ncc1-c1nnc(N2CC3CCC(C2)N3C(=O)C[C@H](NC(=O)[C@@H]2C[C@@H](O)CN2C(=O)[C@@H](NC(=O)C2(F)CC2)C(C)(C)C)c2ccc(-c3scnc3C)cc2)s1` [Example 180, (2S,4R)—N-((1S)-3-(3-(5-(6-(3-cyanopyrrolo[1,2-b]pyridazin-7-yl)-4-(methylamino)pyridin-3-yl)-1,3,4-thiadiazol-2-yl)-3,8-diazabicyclo[3.2.1]octan-8-yl)-1-(4-(4-methylthiazol-5-yl)phenyl)-3-oxopropyl)-1-((S)-2-(1-fluorocyclopropane-1-carboxamido)-3,3-dimethylbutanoyl)-4-hydroxypyrrolidine-2-carboxamide], the half-maximal inhibitory concentration (IC50) at IRAK4 [1] came to 0.5 nM. At IRAK4 [2], the Dmax was found to be 110% and the DC50 was found to be 91.6 nM.

For `CNc1cc(-c2ccc3cc(C#N)cnn23)ncc1-c1nnc(N2CC3(CCN(C[C@@H]4CCN(c5ccc6c(c5)C(=O)N(C5CCC(=O)NC5=O)C6=O)C4)CC3)C2)s1` (stereo partly drawn) [Example 181, 7-(5-(5-(7-(((3S)-1-(2-(2,6-dioxopiperidin-3-yl)-1,3-dioxoisoindolin-5-yl)pyrrolidin-3-yl)methyl)-2,7-diazaspiro[3.5]nonan-2-yl)-1,3,4-thiadiazol-2-yl)-4-(methylamino)pyridin-2-yl)pyrrolo[1,2-b]pyridazine-3-carbonitrile], the IC50 on IRAK4 [1] was determined as 0.6 nM. Besides, at IRAK4 [2], the Dmax is 41% and the DC50 worked out at 6.94 nM.

On to `CNc1cc(-c2ccc3cc(C#N)cnn23)ncc1-c1nnc(N2CC3(CCN(CC4CCN(c5ccc(C(=O)NC6CCC(=O)NC6=O)cc5)CC4)CC3)C2)s1` (stereo not drawn) [Example 182, 4-(4-((2-(5-(6-(3-cyanopyrrolo[1,2-b]pyridazin-7-yl)-4-(methylamino)pyridin-3-yl)-1,3,4-thiadiazol-2-yl)-2,7-diazaspiro[3.5]nonan-7-yl)methyl)piperidin-1-yl)-N-(2,6-dioxopiperidin-3-yl)benzamide], for which the half-maximal inhibitory concentration (IC50) on IRAK4 [1] came to 0.5 nM. On IRAK4 [2], the Dmax was determined as 120% and the 50% degradation concentration (DC50) amounted to 159 nM.

Regarding `CNc1cc(-c2ccc3cc(C#N)cnn23)ncc1-c1nnc([C@H]2C[C@H](NC(=O)C[C@H](NC(=O)[C@@H]3C[C@@H](O)CN3C(=O)[C@@H](NC(=O)C3(F)CC3)C(C)(C)C)c3ccc(-c4scnc4C)cc3)C2)s1` [Example 183, (2S,4R)—N—((S)-3-(((1r,3S)-3-(5-(6-(3-cyanopyrrolo[1,2-b]pyridazin-7-yl)-4-(methylamino)pyridin-3-yl)-1,3,4-thiadiazol-2-yl)cyclobutyl)amino)-1-(4-(4-methylthiazol-5-yl)phenyl)-3-oxopropyl)-1-((S)-2-(1-fluorocyclopropane-1-carboxamido)-3,3-dimethylbutanoyl)-4-hydroxypyrrolidine-2-carboxamide], the IC50 on IRAK4 [1] came to 2.3 nM. Also, on IRAK4 [2], the Dmax worked out at 111% and the half-maximal degradation concentration (DC50) turned out to be 222 nM.

As for `CNc1cc(-c2ccc3cc(C#N)cnn23)ncc1-c1nnc(N2CCC(C3CCN(C(=O)c4ccc5c(c4)C(=O)N(C4CCC(=O)NC4=O)C5=O)CC3)CC2)s1` (stereo not drawn) [Example 184, 7-(5-(5-(1′-(2-(2,6-dioxopiperidin-3-yl)-1,3-dioxoisoindoline-5-carbonyl)-[4,4′-bipiperidin]-1-yl)-1,3,4-thiadiazol-2-yl)-4-(methylamino)pyridin-2-yl)pyrrolo[1,2-b]pyridazine-3-carbonitrile], the IC50 at IRAK4 [1] worked out at 0.9 nM. Moreover, at IRAK4 [2], the Dmax came out at 96% and the DC50 came to 71.4 nM.

Turning to `CNc1cc(-c2ccc3cc(C#N)cnn23)ncc1-c1nnc(N2CCC(C3CCN(C(=O)CN4CCN(c5ccc6c(c5)C(=O)N(C5CCC(=O)NC5=O)C6=O)CC4)CC3)CC2)s1` (stereo not drawn) [Example 185, 7-(5-(5-(1′-(2-(4-(2-(2,6-dioxopiperidin-3-yl)-1,3-dioxoisoindolin-5-yl)piperazin-1-yl)acetyl)-[4,4′-bipiperidin]-1-yl)-1,3,4-thiadiazol-2-yl)-4-(methylamino)pyridin-2-yl)pyrrolo[1,2-b]pyridazine-3-carbonitrile], the 50% inhibitory concentration (IC50) on IRAK4 [1] is 1.5 nM. For the same compound, at IRAK4 [2], the Dmax is 89% and the half-maximal degradation concentration (DC50) was 126 nM.
